Source: patent US7312240B2, “Conformationally constrained paclitaxel analogs and their use as anticancer and anti-Alzheimers agents” (Virginia Tech Intellectual Properties, Inc., priority 2004, dated 2007)

How the values were obtained:
PC-3 prostate cell line = experiment: Cytotoxicity against PC3 prostate cancer cell line; settings: PC3
[1] = system: A2780 ovarian cancer cell line; experiment: Cytotoxicity against A2780 ovarian cancer cell line

Row | Structure (SMILES) | cytotoxicity against PC3 in words, compared with PTX/Taxol (PC-3 prostate cell line) | cytotoxicity against A2780 in words, compared with PTX/Taxol or related analogs [1] | tubulin polymerization activity in words, compared to PTX (purified tubulin) | Cytotoxicity (IC50, μg/ml) A2780 ([1]; Example 2, A2780) [µg/mL]
1 | C=CCOc1ccccc1C(NC(=O)c1ccccc1)C(O)C(=O)OC1CC2(O)C(OC(=O)c3ccccc3)C3C4(OC(=O)C=C)COC4CC(O)C3(C)C(=O)C(OC(C)=O)C(=C1C)C2(C)C (centres unmarked) [Compound 13c] | almost inactive | almost inactive |  | 
2 | C=CCCC(=O)OC12COC1CC(O)C1(C)C(=O)C(OC(C)=O)C3=C(C)C(OC(=O)C(O)C(NC(=O)c4ccccc4)c4cccc(C=C)c4)CC(O)(C(OC(=O)c4ccccc4)C21)C3(C)C (centres unmarked) [Compound 13h] |  | better cytotoxicites than their macrocyclic counter parts |  | 
3 | C=CCCC(=O)OC12COC1CC(O)C1(C)C(=O)C(OC(C)=O)C3=C(C)C(OC(=O)C(O)C(NC(=O)c4ccccc4)c4ccccc4OCC=C)CC(O)(C(OC(=O)c4ccccc4)C21)C3(C)C (centres unmarked) [Compound 13i] |  | better cytotoxicites than their macrocyclic counter parts |  | 
4 | CC(=O)O[C@H]1C(=O)[C@@]2(C)[C@@H]3[C@H](OC(=O)c4ccccc4)[C@]4(O)C[C@H](OC(=O)[C@H](O)[C@@H](NC(=O)c5ccccc5)c5ccccc5OCC/C=C/C(=O)O[C@]35CO[C@@H]5C[C@@H]2O)C(C)=C1C4(C)C [Compound 15c] | more or less equal cytotoxicity | more or less equal cytotoxicity |  | 
5 | CC(=O)O[C@H]1C(=O)[C@@]2(C)[C@@H]3[C@H](OC(=O)c4ccccc4)[C@]4(O)C[C@H](OC(=O)[C@H](O)[C@@H](NC(=O)c5ccccc5)c5cccc(c5)OC/C=C\CCC(=O)O[C@]35CO[C@@H]5C[C@@H]2O)C(C)=C1C4(C)C [Compound 15e] |  |  | comparable | 
6 | CC(=O)O[C@H]1C(=O)[C@@]2(C)[C@@H]3[C@H](OC(=O)c4ccccc4)[C@]4(O)C[C@H](OC(=O)[C@H](O)[C@@H](NC(=O)c5ccccc5)c5cccc(c5)/C=C\CCC(=O)O[C@]35CO[C@@H]5C[C@@H]2O)C(C)=C1C4(C)C [Compound 15f] |  |  | comparable | 
7 | CC(=O)O[C@H]1C(=O)[C@@]2(C)[C@@H]3[C@H](OC(=O)c4ccccc4)[C@]4(O)C[C@H](OC(=O)[C@H](O)[C@@H](NC(=O)c5ccccc5)c5ccccc5OCCCCC(=O)O[C@]35CO[C@@H]5C[C@@H]2O)C(C)=C1C4(C)C [Compound 16c] | more or less equal cytotoxicity | more or less equal cytotoxicity |  | 
8 | CC(=O)O[C@H]1C(=O)[C@@]2(C)[C@@H]3[C@H](OC(=O)c4ccccc4)[C@]4(O)C[C@H](OC(=O)[C@H](O)[C@@H](NC(=O)c5ccccc5)c5cccc(c5)OCCCCCC(=O)O[C@]35CO[C@@H]5C[C@@H]2O)C(C)=C1C4(C)C [Compound 16e] |  | much less than the unsaturated 15e and 15f |  | 
9 | CC(=O)O[C@H]1C(=O)[C@@]2(C)[C@@H]3[C@H](OC(=O)c4ccccc4)[C@]4(O)C[C@H](OC(=O)[C@H](O)[C@@H](NC(=O)c5ccccc5)c5cccc(c5)CCCCC(=O)O[C@]35CO[C@@H]5C[C@@H]2O)C(C)=C1C4(C)C [Compound 16f] |  | much less than the unsaturated 15e and 15f |  | 
10 | O=C1/C=C/COc2cccc(c2)[C@H](NC(=O)c2ccccc2)[C@@H](O)C(=O)OC2CC3CC(CO1)C(OC(=O)c1ccccc1)C(C3)C2 (some centres unmarked) [Compound 20b] |  | less active than 18 and 19 |  | >100
